What follows are molecules tested against T1, human GPR119 (Homo sapiens, UniProt Q8TDV5) (assay: Functional cellular assay measuring GPR119-mediated cAMP release (HTRF) in HEK-293 cells stably expressing recombinant human GPR119). Settings: cAMP response, cell line expressing human GPR119, 30 minutes at room temperature.
T1 construct: expressed in transfected cells
T1 sequence (Q8TDV5 1-335): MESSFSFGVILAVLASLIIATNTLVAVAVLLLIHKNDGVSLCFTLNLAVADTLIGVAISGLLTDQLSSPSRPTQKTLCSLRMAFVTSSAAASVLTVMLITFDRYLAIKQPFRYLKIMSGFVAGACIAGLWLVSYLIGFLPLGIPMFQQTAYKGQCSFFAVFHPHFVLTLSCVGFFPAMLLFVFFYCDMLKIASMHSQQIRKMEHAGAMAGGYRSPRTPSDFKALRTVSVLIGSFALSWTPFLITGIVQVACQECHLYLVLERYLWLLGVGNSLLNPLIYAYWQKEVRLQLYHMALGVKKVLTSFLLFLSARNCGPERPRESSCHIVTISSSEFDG
Assay type: cell-based
In short: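 HEK-293 cells stably expressing recombinant human GPR119, suspended at 400000 cells/mL in HBSS/20 mM HEPES/0.1% BSA/2 mM IBMX, exposed to compound for 30 minutes at room temperature. cAMP detected by HTRF (665/620 nm ratio) after 1 h with reagents in lysis buffer. EC50 taken as concentration giving 50% of maximal activation.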

SMILES | EC50
CN(C)C(=O)CN1Cc2ccc(N3CC[C@@H](Oc4ccc(F)cc4)C3=O)cc2C1=O [Example 2-09, 2-[6-[(3R)-3-(4-fluorophenoxy)-2-oxo-pyrrolidin-1-yl]-1-oxo-isoindolin-2-yl]-N,N-dimethyl-acetamide] | 739 nM
CN(C)C(=O)CN1Cc2ccc(N3CC[C@@H](Oc4ccc(C(=O)c5ccc(F)cc5)nc4)C3=O)cc2C1=O [Example 2-61, 2-[6-[(3R)-3-[[6-(4-fluorobenzoyl)-3-pyridyl]oxy]-2-oxo-pyrrolidin-1-yl]-1-oxo-isoindolin-2-yl]-N,N-dimethyl-acetamide] | 106 nM
CN1C(=O)c2cc(N3CC[C@@H](Oc4ccc(OCC5CC5)nc4)C3=O)ccc2C1CC(=O)O (stereo partly drawn) [Example 1-03, 2-[5-[(3R)-3-[[6-(cyclopropylmethoxy)-3-pyridyl]oxy]-2-oxo-pyrrolidin-1-yl]-2-methyl-3-oxo-isoindolin-1-yl]acetic acid] | 10900 nM
Cn1nnc(CN2Cc3c(F)cc(N4CC[C@@H](Oc5ccc(OCC6CC6)nc5)C4=O)cc3C2=O)n1 [Example 1-18, 6-[(3R)-3-[[6-(cyclopropylmethoxy)-3-pyridyl]oxy]-2-oxo-pyrrolidin-1-yl]-4-fluoro-2-[(2-methyltetrazol-5-yl)methyl]isoindolin-1-one] | 65 nM
O=C1[C@H](Oc2ccc(OCC3CC3)nc2)CCN1c1ccc2[nH][nH]c(=O)c2c1 [Example 1-24, 5-[(3R)-3-[[6-(cyclopropylmethoxy)-3-pyridyl]oxy]-2-oxo-pyrrolidin-1-yl]-1,2-dihydroindazol-3-one] | 14300 nM
CS(=O)(=O)CN1Cc2ncc(N3CC[C@@H](Oc4ccc(C(=O)C5CC5)cc4)C3=O)cc2C1=O [Example 1-62, 3-[(3R)-3-[4-(cyclopropanecarbonyl)phenoxy]-2-oxo-pyrrolidin-1-yl]-6-(methylsulfonylmethyl)-7H-pyrrolo[3,4-b]pyridin-5-one] | 139 nM
CN(C)C(=O)CN1Cc2ccc(N3CC[C@@H](Oc4cnc(OCC5CC5)c(Br)c4)C3=O)cc2C1=O [Example 2-47, 2-[6-[(3R)-3-[[5-bromo-6-(cyclopropylmethoxy)-3-pyridyl]oxy]-2-oxo-pyrrolidin-1-yl]-1-oxo-isoindolin-2-yl]-N,N-dimethyl-acetamide] | 90 nM
CN1Cc2c(F)cc(N3CC[C@@H](Oc4ccc(OCC5CC5)nc4)C3=O)cc2C1=O [Example 1-23, 6-[(3R)-3-[[6-(cyclopropylmethoxy)-3-pyridyl]oxy]-2-oxo-pyrrolidin-1-yl]-4-fluoro-2-methyl-isoindolin-1-one] | 695 nM
COC(=O)C(C)N1Cc2ccc(N3CC[C@@H](Oc4ccc(OCC5CC5)nc4)C3=O)cc2C1=O (stereo partly drawn) [Example 1-04, methyl 2-[6-[(3R)-3-[[6-(cyclopropylmethoxy)-3-pyridyl]oxy]-2-oxo-pyrrolidin-1-yl]-1-oxo-isoindolin-2-yl]propanoate] | 540 nM
COC(=O)CN1Cc2c(F)cc(N3CC[C@@H](Oc4ccc(OCCC5CC5)nc4)C3=O)cc2C1=O [Example 1-35, methyl 2-[6-[(3R)-3-[[6-(2-cyclopropylethoxy)-3-pyridyl]oxy]-2-oxo-pyrrolidin-1-yl]-4-fluoro-1-oxo-isoindolin-2-yl]acetate] | 19 nM
CN(C)C(=O)C1NC(=O)c2cc(N3CC[C@@H](Oc4ccc(OCC5CC5)nc4)C3=O)ccc2N1C (single isomer, unassigned) [Example 1-42] | 366 nM
CCCCC(=O)c1ccc(O[C@@H]2CCN(c3ccc4c(c3)C(=O)N(CC(=O)N(C)C)C4)C2=O)cc1 [Example 2-12, N,N-dimethyl-2-[1-oxo-6-[(3R)-2-oxo-3-(4-pentanoylphenoxy)pyrrolidin-1-yl]isoindolin-2-yl]acetamide] | 44 nM
COC(=O)CN1Cc2ccc(N3CC[C@@H](Oc4ccc(OC5CC5)nc4)C3=O)cc2C1=O [Example 1-22, methyl 2-[6-[(3R)-3-[[6-(cyclopropoxy)-3-pyridyl]oxy]-2-oxo-pyrrolidin-1-yl]-1-oxo-isoindolin-2-yl]acetate] | 242 nM
CC(C)(C)N1Cc2c(F)cc(N3CC[C@@H](Oc4ccc(OCC5CC5)nc4)C3=O)cc2C1=O [Example 1-33, 2-tert-butyl-6-[(3R)-3-[[6-(cyclopropylmethoxy)-3-pyridyl]oxy]-2-oxo-pyrrolidin-1-yl]-4-fluoro-isoindolin-1-one] | 8510 nM
CN(C)C(=O)CN1Cc2ccc(N3CC[C@@H](Oc4ccc(C(=O)C5CC5)c(F)c4)C3=O)cc2C1=O [Example 2-62, 2-[6-[(3R)-3-[4-(cyclopropanecarbonyl)-3-fluoro-phenoxy]-2-oxo-pyrrolidin-1-yl]-1-oxo-isoindolin-2-yl]-N,N-dimethyl-acetamide] | 59 nM
CN(C)C(=O)CN1Cc2ccc(N3CC[C@@H](Oc4ccc(OCCC5CC5)nc4)C3=O)cc2C1=O [Example 1-38, 2-[6-[(3R)-3-[[6-(2-cyclopropylethoxy)-3-pyridyl]oxy]-2-oxo-pyrrolidin-1-yl]-1-oxo-isoindolin-2-yl]-N,N-dimethyl-acetamide] | 35 nM
CN(C)C(=O)CN1Cc2ccc(N3CC[C@@H](Oc4ccc(NCC5CC5)nc4)C3=O)cc2C1=O [Example 2-08, 2-[6-[(3R)-3-[[6-(cyclopropylmethylamino)-3-pyridyl]oxy]-2-oxo-pyrrolidin-1-yl]-1-oxo-isoindolin-2-yl]-N,N-dimethyl-acetamide] | 2120 nM

Next, values leading:

EC50 | SMILES
67 nM | CCOc1ccc(O[C@@H]2CCN(c3cc(F)c4c(c3)C(=O)N(CC#N)C4)C2=O)cn1 [Example 5-01, 2-[6-[(3R)-3-[(6-ethoxy-3-pyridyl)oxy]-2-oxo-pyrrolidin-1-yl]-4-fluoro-1-oxo-isoindolin-2-yl]acetonitrile]
297 nM | CN(CCO)C(=O)CN1Cc2ccc(N3CC[C@@H](Oc4ccc(Oc5ccc(F)cc5)nc4)C3=O)cc2C1=O [Example 4-12, 2-[6-[(3R)-3-[[6-(4-fluorophenoxy)-3-pyridyl]oxy]-2-oxo-pyrrolidin-1-yl]-1-oxo-isoindolin-2-yl]-N-(2-hydroxyethyl)-N-methyl-acetamide]
541 nM | O=C(CN1Cc2ccc(N3CC[C@@H](Oc4ccc(OCC5CC5)nc4)C3=O)cc2C1=O)NC[C@H](O)CO [Example 4-34, 2-[6-[(3R)-3-[[6-(cyclopropylmethoxy)-3-pyridyl]oxy]-2-oxo-pyrrolidin-1-yl]-1-oxo-isoindolin-2-yl]-N-[(2S)-2,3-dihydroxypropyl]acetamide]
197 nM | O=C(CN1Cc2ccc(N3CC[C@@H](Oc4ccc(OCC5CC5)nc4)C3=O)cc2C1=O)N1CC(O)C1 [Example 4-04, 6-[(3R)-3-[[6-(cyclopropylmethoxy)-3-pyridyl]oxy]-2-oxo-pyrrolidin-1-yl]-2-[2-(3-hydroxyazetidin-1-yl)-2-oxo-ethyl]isoindolin-1-one]
48 nM | O=C(CN1Cc2c(F)cc(N3CC[C@@H](Oc4ccc(OCCC5CC5)nc4)C3=O)cc2C1=O)N1CCCC1 [Example 4-26, 6-[(3R)-3-[[6-(2-cyclopropylethoxy)-3-pyridyl]oxy]-2-oxo-pyrrolidin-1-yl]-4-fluoro-2-(2-oxo-2-pyrrolidin-1-yl-ethyl)isoindolin-1-one]
43 nM | O=C(CN1Cc2ccc(N3CC[C@@H](Oc4ccc(OCC(F)(F)F)nc4)C3=O)cc2C1=O)N1CCCC1 [Example 4-40, 2-(2-oxo-2-pyrrolidin-1-yl-ethyl)-6-[(3R)-2-oxo-3-[[6-(2,2,2-trifluoroethoxy)-3-pyridyl]oxy]pyrrolidin-1-yl]isoindolin-1-one]
